# Measured values: PubChem BioAssay (NCI)
#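 Dose response: 5 concentrations. Exposure: 48 h. Format: 96-well plates. Endpoint: linear interpolation; highest concentration if not reached. At the TGI there is no net growth.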
# Assays:
# Assay in all cases: NCI tumour cell line growth inhibition, 48 h
# HT29 colon = tested on: HT29 colon
# HL-60(TB) leukemia = tested on: HL-60(TB) leukemia
# HCT-116 colon = tested on: HCT-116 colon
# OVCAR-8 ovarian = tested on: OVCAR-8 ovarian
# M14 melanoma = tested on: M14 melanoma
# SF-295 CNS = tested on: SF-295 CNS
# MOLT-4 leukemia = tested on: MOLT-4 leukemia
# U251 CNS = tested on: U251 CNS
# NCI-H23 lung = tested on: NCI-H23 lung
# SK-OV-3 ovarian = tested on: SK-OV-3 ovarian
# OVCAR-4 ovarian = tested on: OVCAR-4 ovarian
# HCT-15 colon = tested on: HCT-15 colon
# SN12C renal = tested on: SN12C renal
# SF-539 CNS = tested on: SF-539 CNS
# SK-MEL-5 melanoma = tested on: SK-MEL-5 melanoma
# UACC-62 melanoma = tested on: UACC-62 melanoma
# HCC-2998 colon = tested on: HCC-2998 colon
# KM12 colon = tested on: KM12 colon
# SR leukemia = tested on: SR leukemia
# SK-MEL-28 melanoma = tested on: SK-MEL-28 melanoma
SMILES,TGI (HT29 colon) [µM],TGI (HL-60(TB) leukemia) [µM],TGI (HCT-116 colon) [µM],TGI (OVCAR-8 ovarian) [µM],TGI (M14 melanoma) [µM],TGI (SF-295 CNS) [µM],TGI (MOLT-4 leukemia) [µM],TGI (U251 CNS) [µM],TGI (NCI-H23 lung) [µM],TGI (SK-OV-3 ovarian) [µM],TGI (OVCAR-4 ovarian) [µM],TGI (HCT-15 colon) [µM],TGI (SN12C renal) [µM],TGI (SF-539 CNS) [µM],TGI (SK-MEL-5 melanoma) [µM],TGI (UACC-62 melanoma) [µM],TGI (HCC-2998 colon) [µM],TGI (KM12 colon) [µM],TGI (SR leukemia) [µM],TGI (SK-MEL-28 melanoma) [µM]
Nc1ccccc1N,> 100,70.3,> 100,> 100,> 100,> 100,> 100,> 100,> 100,> 100,> 100,> 100,> 100,> 100,> 100,> 100,> 100,> 100,> 100,> 100
O=C1c2cc(Br)ccc2-c2ccc3c4ccc5c6c(ccc(c7ccc1c2c73)c64)C(=O)c1cc(Br)ccc1-5,> 100,> 100,> 100,> 100,> 100,–,–,> 100,> 100,> 100,–,> 100,> 100,> 100,> 100,> 100,> 100,> 100,> 100,> 100
O=C(O)C(Cc1cc(I)c(O)c(I)c1)C1CCCCC1 (stereo unspecified),98.3,–,88.7,> 100,> 100,> 100,76.2,54.6,65.5,–,> 100,> 100,> 100,–,53.5,> 100,76.9,> 100,> 100,> 100
CCOC(=O)CC1=N/C(=N/C(=N)N[N+](=O)[O-])SC1,> 100,> 100,> 100,> 100,> 100,> 100,–,> 100,> 100,> 100,> 100,> 100,> 100,> 100,> 100,> 100,> 100,> 100,–,> 100
NCCCCCC(CCN)SCC1OC(n2cnc3c(N)ncnc32)C(O)C1O (stereo unspecified),> 1500,> 1500,> 1500,> 1500,–,> 1500,> 1500,> 1500,> 1500,> 1500,> 1500,> 1500,> 1180,> 1240,> 1500,> 1500,> 1500,> 1500,–,> 1500
N=c1sc2ccccc2n1CCS (tested in a mixture with another compound),37.1,66.9,30.5,31.8,30.6,42,8.45,29.1,32.3,53.6,46.9,34.6,59.4,19.3,28,26.9,30.8,35.5,–,41.4
NC(Cc1ccc(CP(=O)(O)O)cc1)C(=O)O (stereo unspecified),> 100,> 100,> 100,> 100,> 100,> 100,> 100,> 100,> 100,> 100,> 100,> 100,> 100,> 100,> 100,> 100,> 100,> 100,> 100,> 100
COc1ccc(-c2cc(N3CCN(c4ccc(Cl)cc4)CC3)c(C#N)c(=O)o2)cc1,> 100,> 100,32.7,19.1,> 100,16.4,–,58.2,88.1,–,5.07,> 100,> 100,14.6,31.3,–,> 100,> 100,> 100,23.3
